In patent US12590953B2, “Methods for screening cereblon modifying compounds” (CELGENE CORPORATION, priority 2018, dated 2026):
Entries after “also recorded” stand apart in the source; their conditions may differ. Like-named read-outs stand apart in the source and are kept apart here.

Tests used:
SALL4 mRNA = test: In situ hybridization for SALL4 RNA in rabbit embryo limb buds; type: in vivo; settings: treated vs untreated
Method: A fully automated SALL4 ISH assay was performed on Leica BOND RX IHC & ISH stainer with the BOND Research Detection System (Leica, Cat. No. DS9455). Formalin fixed paraffin embedded (FFPE) rabbit embryos were sectioned at four micron thickness, baked at 60° C. for 1 hour and then deparaffinized in Dewax solution at 72° C. Antigen retrieval was performed in Epitope Retrieval 2 (ER2, pH 9.0) for 15 min at 95° C. Custom-designed rabbit SALL4 target probe was applied on the slides and incubated at 42° C. for 2 hours. SALL4 signal was then amplified with the RNAscope LS Multiplex Fluorescent Reagent Kit (ACD, Cat. No. 322800) using the BOND RX default ACD ISH protocol. SALL4 signal was detected with Opal TSA fluorophore 570 (PerkinElmer, Cat. No. FP1488001KT) at a 1:1500 dilution for a 30 min incubation. Slides were then coverslipped manually using ProLong Diamond Antifade Mountant with DAPI (Life Technology, Catalog No. P36966). After whole slide scan at 4× magnification was completed, 40× magnification images were acquired using Perkin Elmer Vectra 3.0 multispectral image platform.

rabbit embryos = settings: in vivo
Method: All animals were housed and fed according to IACUC approved procedures. The rabbits either remained untreated (n=4 per time point) or received 180 mg/kg of Thalidomide per day (n=5 per time point) starting on GD7. Dose levels and sensitive gestation windows were selected based on previously reported finding in Thalidomide teratogenicity studies (Christian MS, birth defect research, 2007)
Resorption sites, embryo mortality and gross observations were recorded during embryo collection. Embryo mortality was based on the absence of a heartbeat. There were no resorption sites or embryo and placental abnormalities in the control group. […] On Day 8, all 41 implantation sites from 5 rabbits appeared normal. On Day 9, 1/5 rabbits were affected and there was 1 resorption site out of a total of 52 implantation sites. On Day 10, 1/5 rabbit was affected and there was 1 resorption site out of a total of 38 implantation sites. On Day 11, 3/5 rabbits were affected, with 2 resorptions sites (5.41%) and 2 dead embryos (5.41%) out of 37 implantation sites. On Day 12, 5/5 rabbits were affected, with 3 resorption sites (6.98%) and 11 dead embryos (25.58%) out of […] implantation sites.
Cesarean sections were performed in each rabbit 3 hours after the last Thalidomide dose to ensure maximum plasma concentration of Thalidomide (CMax=3 hours) (Hui et al, Reproductive Toxicology, 2014). The uteri were removed, the implantation sites were counted and mortality and resorptions noted during embryo dissection. GD8 embryos were not dissected and were fixed in situ attached to the placental site and uterine wall. The entire implantation site was processed, embedded in paraffin and sectioned at 4 microns for immunohistochemistry. GD 9-12 embryos were collected with fetal membranes, fixed in 10% Neutral Buffered Formalin for 24 hours and transferred to 70% Ethanol. After fixation fetal membranes were removed and embryos processed, embedded in paraffin and sectioned at 4 microns for immunohistochemistry and in situ hybridization procedures.
More specifically, adult female New Zealand white rabbits between 5 and 8 months of age were time mated for embryo collection at Gestation Days (GD) 8, 9, 10, 11 and 12 as shown in Table 1 below.

Ikaros = Ikaros (Homo sapiens, UniProt Q13422+Q96SW2); test: Degradation of Ikaros (data not shown)
ZFP91 = ZFP91 immunohistochemistry in rabbit testis; type: in vivo; settings: treated male rabbits (150 mg/kg)
Method: Male New Zealand white rabbits were treated with vehicle (1% Carboxymethylcellulose in deionized water), or Thalidomide at either 30 or 150 mg/kg/day for 56 days to investigate testicular degeneration. Testis were collected 24 hours after the last dose, fixed in 10% NBF, processed, embedded in paraffin and sectioned at 4 microns for immunohistochemistry.
Rabbit embryos were stained for SALL4, and mouse testis were stained for SALL4 and ZFP91. Immunohistochemistry (IHC) was performed on the Bond-III automated slide stainer (Leica Microsystems, Buffalo Grove, Ill.) using the Bond Polymer Refine Detection system (Leica Microsystems, DS9800). Formalin fixed paraffin embedded (FFPE) tissues were sectioned at four micron thick and deparaffinized on the Bond-Max instrument. Antigen retrieval was performed with Epitope Retrieval 2 (ER2, pH 9.0) for 20 min at 100° C. The slides were blocked for endogenous peroxidase activity with Peroxide Block for 5 minutes at room temperature. Sections were then incubated with the mouse monoclonal anti-SALL4 EE-30 antibody (Santa Cruz, sc-101147) at a 1:100 dilution for 60 min at room temperature, or with the rabbit monoclonal anti-ZFP91 antibody (Celgene custom clone 122-8-6) at 0.25 ug/ml. […]

CK1α = CK1α (Homo sapiens, UniProt P48729); test: Degradation of CK1α (data not shown)
[1] = female, New Zealand white, 8 gestation day
[2] = female, New Zealand white, 9 gestation day
[3] = female, New Zealand white, 10 gestation day
[4] = female, New Zealand white, 11 gestation day
[5] = female, New Zealand white, 12 gestation day

Sequence of CK1α (Q96SW2 whole entry partner): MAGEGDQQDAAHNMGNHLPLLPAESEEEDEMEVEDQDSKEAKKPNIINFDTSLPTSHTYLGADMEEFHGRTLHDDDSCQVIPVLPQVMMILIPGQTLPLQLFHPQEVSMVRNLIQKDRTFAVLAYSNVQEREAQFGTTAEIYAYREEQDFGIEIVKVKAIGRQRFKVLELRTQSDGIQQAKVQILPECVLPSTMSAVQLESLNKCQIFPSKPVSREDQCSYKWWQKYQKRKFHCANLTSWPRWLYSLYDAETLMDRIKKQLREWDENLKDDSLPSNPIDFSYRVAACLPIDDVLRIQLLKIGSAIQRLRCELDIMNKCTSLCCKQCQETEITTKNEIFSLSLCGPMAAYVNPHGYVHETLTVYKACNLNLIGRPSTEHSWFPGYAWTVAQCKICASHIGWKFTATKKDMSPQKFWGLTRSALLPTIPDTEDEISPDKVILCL
Sequence of CK1α (Q16531 whole entry partner): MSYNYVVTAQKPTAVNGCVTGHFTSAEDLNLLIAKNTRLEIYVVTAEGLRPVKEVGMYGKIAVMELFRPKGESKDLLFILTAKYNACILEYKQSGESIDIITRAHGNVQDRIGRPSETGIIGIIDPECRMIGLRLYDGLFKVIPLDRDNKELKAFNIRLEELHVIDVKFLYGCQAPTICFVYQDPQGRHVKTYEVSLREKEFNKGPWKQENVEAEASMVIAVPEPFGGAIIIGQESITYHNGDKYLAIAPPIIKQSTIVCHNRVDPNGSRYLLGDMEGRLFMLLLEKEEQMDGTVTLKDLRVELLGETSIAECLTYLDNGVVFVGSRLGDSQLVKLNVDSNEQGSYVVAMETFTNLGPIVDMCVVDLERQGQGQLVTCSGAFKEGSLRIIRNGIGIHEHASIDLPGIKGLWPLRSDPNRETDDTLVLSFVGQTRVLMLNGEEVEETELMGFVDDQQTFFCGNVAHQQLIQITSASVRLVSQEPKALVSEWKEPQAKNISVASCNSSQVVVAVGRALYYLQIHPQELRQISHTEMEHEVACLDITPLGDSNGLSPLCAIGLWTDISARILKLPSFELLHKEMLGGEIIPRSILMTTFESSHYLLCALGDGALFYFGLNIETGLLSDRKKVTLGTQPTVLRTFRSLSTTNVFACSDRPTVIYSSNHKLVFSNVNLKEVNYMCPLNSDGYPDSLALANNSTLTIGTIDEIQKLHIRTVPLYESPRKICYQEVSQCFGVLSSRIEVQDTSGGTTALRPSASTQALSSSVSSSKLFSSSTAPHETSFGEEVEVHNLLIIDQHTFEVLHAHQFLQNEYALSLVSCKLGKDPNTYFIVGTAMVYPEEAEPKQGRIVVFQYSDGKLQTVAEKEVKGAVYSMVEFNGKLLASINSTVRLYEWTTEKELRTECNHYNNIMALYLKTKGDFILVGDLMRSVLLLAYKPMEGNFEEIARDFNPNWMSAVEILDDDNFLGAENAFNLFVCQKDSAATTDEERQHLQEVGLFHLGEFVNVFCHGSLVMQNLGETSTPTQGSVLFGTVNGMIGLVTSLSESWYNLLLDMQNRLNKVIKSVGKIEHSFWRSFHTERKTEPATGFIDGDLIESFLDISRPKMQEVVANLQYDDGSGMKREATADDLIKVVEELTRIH
Sequence of CK1α (P48729 whole entry): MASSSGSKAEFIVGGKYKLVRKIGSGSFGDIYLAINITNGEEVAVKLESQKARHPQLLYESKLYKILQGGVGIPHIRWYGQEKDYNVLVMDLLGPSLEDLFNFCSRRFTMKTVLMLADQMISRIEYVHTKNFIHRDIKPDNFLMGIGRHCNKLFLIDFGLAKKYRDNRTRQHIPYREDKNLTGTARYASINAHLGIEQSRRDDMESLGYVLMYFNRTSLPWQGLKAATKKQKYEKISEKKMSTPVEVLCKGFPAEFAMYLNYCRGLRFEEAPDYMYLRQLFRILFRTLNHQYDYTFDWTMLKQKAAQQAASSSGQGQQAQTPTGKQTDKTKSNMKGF
Sequence of Ikaros (Q13422 whole entry, species assumed): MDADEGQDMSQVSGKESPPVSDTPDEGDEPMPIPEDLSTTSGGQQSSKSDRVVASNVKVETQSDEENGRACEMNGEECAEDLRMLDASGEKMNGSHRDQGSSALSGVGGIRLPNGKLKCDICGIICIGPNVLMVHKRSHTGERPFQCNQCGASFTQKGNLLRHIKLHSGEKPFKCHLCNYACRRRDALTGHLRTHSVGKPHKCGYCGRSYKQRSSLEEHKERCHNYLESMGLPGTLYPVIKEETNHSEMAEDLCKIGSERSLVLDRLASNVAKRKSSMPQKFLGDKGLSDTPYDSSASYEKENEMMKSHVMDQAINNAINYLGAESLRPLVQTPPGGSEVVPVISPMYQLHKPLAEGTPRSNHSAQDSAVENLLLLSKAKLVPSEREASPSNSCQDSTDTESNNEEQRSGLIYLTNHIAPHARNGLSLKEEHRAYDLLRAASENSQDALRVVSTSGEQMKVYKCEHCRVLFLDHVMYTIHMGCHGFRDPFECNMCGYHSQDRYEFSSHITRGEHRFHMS
Sequence of Ikaros (Q96SW2 whole entry, species assumed): as the sequence (Q96SW2 whole entry partner) above
Sequence of Ikaros (Q16531 whole entry partner, species assumed): as the sequence (Q16531 whole entry partner) above

O=C1CCC(N2C(=O)c3ccccc3C2=O)C(=O)N1 (centres unmarked) [thalidomide]
SALL4 mRNA levels (ISH) (SALL4 mRNA): not altered upon thalidomide treatment
Dead (dead embryos) (rabbit embryos; female, New Zealand white): 0
Resorbed, share of implantation sites (rabbit embryos; female, New Zealand white): 1.92%
Average number of implantation sites (rabbit embryos; [1]): 8.2
Resorbed (resorption sites) (rabbit embryos; [1]): 0
Sites/Rabbit (implantation sites per individual rabbit; R = Resorbed, D = Dead) (rabbit embryos; [1]): 9, 9, 8, 7, 8
Average number of implantation sites (rabbit embryos; [2]): 10.4
Rabbits affected (rabbit embryos; [2]): 1/5
Resorbed (resorption sites) (rabbit embryos; [2]): 1
Average number of implantation sites (rabbit embryos; [3]): 8.75
Dead (dead embryos) (rabbit embryos; [3]): 1
Dead, share of implantation sites (rabbit embryos; [3]): 0.03%
Rabbits affected (rabbit embryos; [3]): 1/5
Average number of implantation sites (rabbit embryos; [4]): 7.4
Dead (dead embryos) (rabbit embryos; [4]): 2
Dead, share of implantation sites (rabbit embryos; [4]): 5.41%
Rabbits affected (rabbit embryos; [4]): 3/5
Resorbed (resorption sites) (rabbit embryos; [4]): 2
Resorbed, share of implantation sites (rabbit embryos; [4]): 5.41%
Average number of implantation sites (rabbit embryos; [5]): 8.8
Dead (dead embryos) (rabbit embryos; [5]): 11
Dead, share of implantation sites (rabbit embryos; [5]): 25.58%
Rabbits affected (rabbit embryos; [5]): 5/5
Resorbed (resorption sites) (rabbit embryos; [5]): 3
Resorbed, share of implantation sites (rabbit embryos; [5]): 6.98%
Implantation frequency vs control (rabbit embryos): no significant differences in implantation frequency
Triggering the degradation of Ikaros (Ikaros): only moderately active in triggering the degradation of Ikaros
ZFP91 protein levels in testis (ZFP91): correspondingly depleted; also recorded: caused degradation of both ZFP91 and SALL4
Triggering the degradation of CK1α (CK1α): does not trigger the degradation of CK1α
